Measurements published in ChEMBL document CHEMBL4699395, “Synthesis and evaluation of novel 2,4-disubstituted arylthiazoles against T. brucei” (RSC Med Chem, 2020).

Tests used:
Trypanosoma brucei = test: Antitrypanosomal activity against Trypanosoma brucei 427 bloodstream form assessed as concentration required to inhibit 50% parasite growth incubated for 48 hrs by Alamar blue assay; type: functional, organism-based; details: Trypanosoma brucei, 427, 48 h
[1] = Selectivity index, ratio of IC50 for rat L6 cells assessed as cell growth inhibition incubated for 6 days by Alamar blue assay to IC50 for Trypanosoma brucei 427 bloodstream form assessed as parasite growth inhibition incubated for 48 hrs by Alamar blue assay; details: L6 cells (versus Trypanosoma brucei 427 bloodstream form)

IC50 (Trypanosoma brucei) [µM]	Compound	selectivity ratio at 48 h [1]
10	N=C(N)Nc1nc(-c2ccc(C34CC5CC(CC(C5)C3)C4)cc2)cs1	
	NCc1nc(-c2ccc(C34CC5CC(CC(C5)C3)C4)cc2)cs1	< 1
